According to patent publication US7618990B2, “Oxazolidone derivatives as PR modulators” (Wyeth, priority 2006, dated 2009):

Key:
[1] = tested on: alkaline phosphatase activity in T47D cells; experiment: Effects of progestins and antiprogestins on alkaline phosphatase activity in T47D cells (antagonist mode); format: cell-based; conditions: Homo sapiens, in the presence of 1 nM progesterone, 24 h, read-out: T47D Alkaline Phosphatase Activity IC50 (nM) or % inhibition
[2] = biological target: T1, progesterone receptor (PR) (Homo sapiens, UniProt P06401); experiment: Progesterone receptor whole cell competition binding assay using T47D cells; conditions: intact T47D cells, 3 nM 3H-progesterone, 3 h at 37° C.
T1 construct: in live, intact (whole) cells using the human breast carcinoma T47D cell line; endogenous in cells; host or cells: T47D human breast carcinoma cells
T1 sequence (P06401 1-933): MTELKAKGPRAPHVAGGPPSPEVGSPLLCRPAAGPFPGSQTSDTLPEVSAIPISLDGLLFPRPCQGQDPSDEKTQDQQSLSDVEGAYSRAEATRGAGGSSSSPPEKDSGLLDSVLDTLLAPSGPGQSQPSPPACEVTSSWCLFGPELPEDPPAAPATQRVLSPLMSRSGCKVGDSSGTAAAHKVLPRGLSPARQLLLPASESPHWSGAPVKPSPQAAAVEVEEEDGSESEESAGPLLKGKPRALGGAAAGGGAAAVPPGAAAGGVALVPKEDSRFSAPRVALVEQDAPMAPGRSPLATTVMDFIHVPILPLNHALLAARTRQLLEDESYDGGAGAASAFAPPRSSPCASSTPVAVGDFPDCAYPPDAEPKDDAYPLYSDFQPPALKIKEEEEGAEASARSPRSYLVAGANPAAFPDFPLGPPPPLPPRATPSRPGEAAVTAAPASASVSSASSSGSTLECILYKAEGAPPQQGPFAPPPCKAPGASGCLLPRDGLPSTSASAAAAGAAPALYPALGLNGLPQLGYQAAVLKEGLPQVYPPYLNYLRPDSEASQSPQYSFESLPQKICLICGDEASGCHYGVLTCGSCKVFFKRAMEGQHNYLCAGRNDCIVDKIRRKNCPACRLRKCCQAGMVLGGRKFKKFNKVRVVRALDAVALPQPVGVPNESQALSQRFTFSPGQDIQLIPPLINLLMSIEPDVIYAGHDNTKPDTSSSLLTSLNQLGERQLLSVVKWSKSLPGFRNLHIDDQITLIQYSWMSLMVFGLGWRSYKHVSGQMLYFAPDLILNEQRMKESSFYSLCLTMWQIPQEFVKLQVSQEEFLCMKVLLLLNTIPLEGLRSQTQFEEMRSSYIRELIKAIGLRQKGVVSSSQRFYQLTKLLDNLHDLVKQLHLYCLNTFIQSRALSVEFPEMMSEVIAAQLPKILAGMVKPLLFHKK
Protocol: (2) Progesterone Receptor Whole Cell Competition Binding Assay Using T47D Cells
PURPOSE: To evaluate the progesterone receptor (PR) binding activity of progestins or antiprogestins in live, intact (whole) cells using the human breast carcinoma T47D cell line and ^3H-progesterone as the labeled ligand.
Culture Medium: • 5% RC: phenol red free DMEM:F12 (1:1) (GIBCO, BRL) supplemented with 5% (v/v) charcoal stripped fetal bovine serum (not heat-inactivated), 100 U/mL penicillin, 100 μg/mL streptomycin, and 2 mM the GlutaMax™ reagent (GIBCO, BRL). • 10% RC: Same as above supplemented with 10% (v/v) FBS. • ^3H-Progesterone: Perkin Elmer Life Science, cat# NET-381 (typically around 102 Ci/mmol)
T47D cells were maintained in 10% RC media at 37° C. in a 5% CO2/humidified atmosphere and were split twice weekly for proper response. Cells were plated in 10% RC the day before binding assay at 50,000 cells per well in the white, clear bottom plates purchased through VWR or Perkin Elmer.
Cells plated the day prior to the assay in white clear bottom plates were used. A master compound plate was set up containing control and test compounds at 20× final desired concentration for the competition binding. A typical dose range of 20× concentrations were (in nM); 200,000; 20,000; 6000; 2000; 600; 200; 20; and 2. Final concentrations were (in nM); 10,000; 1000; 300; 100; 30; 10; 1; 0.1. Control compounds were typically run 10-fold lower than this and include a 0, or vehicle, control well. A stock of 60 nM ^3H-progesterone (20×) were also prepared at a volume needed of 10 μL per well.
Media on cells were replaced with 180 μL of 5% RC. Ten microliters (10 μL) of 60 nM ^3H-progesterone (for final concentration of 3 nM) was added immediately, followed by 10 μL of 20× test or control compounds. Compounds were incubated for 3 h at 37° C. (A time course study found no difference between 2 and 4 h incubation.)
Following incubation, media was carefully removed and cells were washed 3× with 200 μL 5% RC each wash. Fifty microliters of liquid scintillation cocktail was added and the plates were shaken vigorously for a minimum of 15 min. Plates were read on the Wallac Microbeta® 1450 plate reader.
Square root-transformed data were used for analysis of variance and calculation of IC50. SAS software (SAS Institute, Inc.) was used for all the statistical analysis.
Progesterone was used as a reference progestin and RU486 as a reference antiprogestin.

O=C1NCCN1c1nc(-c2ccc(Br)cc2)cs1 [Example 75, 1-[4-(4-Bromophenyl)-1,3-thiazol-2-yl]imidazolidin-2-one]
melting point: 230 to 233 °C
IC50 [1]: 1070 nM
Ki [2]: 2080 nM

O=C1OCC(C(F)(F)F)N1c1nc(-c2ccc(Br)cc2)cs1 (stereo not drawn) [Example 64, 3-[4-(4-Bromophenyl)-1,3-thiazol-2-yl]-4-(trifluoromethyl)-1,3-oxazolidin-2-one]
melting point: 154 to 156 °C
IC50 [1]: 291 nM
Ki [2]: 234 nM

N#Cc1ccc(-c2csc(N3C(=O)OC[C@H]3C(F)(F)F)n2)cc1 [Example 65, 4-{2-[(4S)-2-Oxo-4-(trifluoromethyl)-1,3-oxazolidin-3-yl]-1,3-thiazol-4-yl}benzonitrile]
melting point: 208 to 209 °C
IC50 [1]: 43.2 nM
Ki [2]: 60.3 nM

C[C@@H]1COC(=O)N1c1nc(-c2ccc(C#N)cc2)cs1 [Example 2, 4-{2-[(4R)-4-Methyl-2-oxo-1,3-oxazolidin-3-yl]-1,3-thiazol-4-yl}benzonitrile]
melting point: 227 to 228 °C
IC50 [1]: 14.6 nM
Ki [2]: 43.4 nM

N#Cc1ccc(-c2csc(N3C(=O)OC[C@@H]3C(F)(F)F)n2)cc1 [Example 66, 4-{2-[(4R)-2-oxo-4-(trifluoromethyl)-1,3-oxazolidin-3-yl]-1,3-thiazol-4-yl}benzonitrile]
melting point: 208 to 209 °C
IC50 [1]: 482 nM
Ki [2]: 212 nM

CC1(C)COC(=O)N1c1nc(-c2ccc(C#N)cc2)c(F)s1 [Example 58, 4-[2-(4,4-dimethyl-2-oxo-1,3-oxazolidin-3-yl)-5-fluoro-1,3-thiazol-4-yl]benzonitrile]
melting point: 177 to 178 °C
IC50 [1]: 4 nM
Ki [2]: 16.1 nM

C[C@@H]1COC(=O)N1c1nc(-c2ccc(Br)cc2)cs1 [Example 1, (4R)-3-[4-(4-Bromophenyl)-1,3-thiazol-2-yl]-4-methyl-1,3-oxazolidin-2-one]
melting point: 197 to 199 °C
IC50 [1]: 22.1 nM
Ki [2]: 87.6 nM

CCC1COC(=O)N1c1nc(-c2ccc(Br)cc2)cs1 (stereo not drawn) [Example 49, 3-[4-(4-Bromophenyl)-1,3-thiazol-2-yl]-4-ethyl-1,3-oxazolidin-2-one]
melting point: 148.5 °C
IC50 [1]: 39 nM
Ki [2]: 68 nM

CC(C)C[C@H]1COC(=O)N1c1nc(-c2ccc(Br)cc2)cs1 [Example 37, (4S)-3-[4-(4-Bromophenyl)-1,3-thiazol-2-yl]-4-isobutyl-1,3-oxazolidin-2-one]
melting point: 144 to 146 °C
IC50 [1]: 359 nM
Ki [2]: 566 nM

O=C1OC[C@@H](c2ccccc2)N1c1nc(-c2ccc(Br)cc2)cs1 [Example 35, (4R)-3-[4-(4-Bromophenyl)-1,3-thiazol-2-yl]-4-phenyl-1,3-oxazolidin-2-one]
melting point: 218 to 220 °C
IC50 [1]: 204 nM
Ki [2]: 713 nM

CCCCC1COC(=O)N1c1nc(-c2ccc(C#N)cc2)cs1 (stereo not drawn) [Example 48, 4-[2-(4-Butyl-2-oxo-1,3-oxazolidin-3-yl)-1,3-thiazol-4-yl]benzonitrile]
melting point: 134 to 137 °C
IC50 [1]: 23.3 nM
Ki [2]: 128 nM

O=C1OCC2(CCCC2)N1c1nc(-c2ccc(Br)cc2)cs1 [Example 34, 1-[4-(4-Bromophenyl)-1,3-thiazol-2-yl]-3-oxa-1-azaspiro[4.4]nonan-2-one]
melting point: 138 to 139 °C
IC50 [1]: 95.3 nM
Ki [2]: 529 nM

CC[C@H]1COC(=O)N1c1nc(-c2ccc(Br)cc2)cs1 [Example 7, (4S)-3-[4-(4-Bromophenyl)-1,3-thiazol-2-yl]-4-ethyl-1,3-oxazolidin-2-one]
melting point: 138 to 140 °C
IC50 [1]: 23 nM
Ki [2]: 75.3 nM

CC1(C)COC(=O)N1c1nc(-c2ccc(Br)cc2)cs1 [Example 5, 3-[4-(4-Bromophenyl)-1,3-thiazol-2-yl]-4,4-dimethyl-1,3-oxazolidin-2-one]
melting point: 165 to 167 °C
IC50 [1]: 6.4 nM
Ki [2]: 38.2 nM

CC(C)C1COC(=O)N1c1nc(-c2ccc(Br)cc2)cs1 (stereo not drawn) [Example 38, 3-[4-(4-Bromophenyl)-1,3-thiazol-2-yl]-4-isopropyl-1,3-oxazolidin-2-one]
melting point: 174 to 176 °C
IC50 [1]: 75.6 nM
Ki [2]: 108 nM

C[C@H]1COC(=O)N1c1nc(-c2ccc(C#N)cc2)cs1 [Example 4, 4-{2-[(4S)-4-Methyl-2-oxo-1,3-oxazolidin-3-yl]-1,3-thiazol-4-yl}benzonitrile]
melting point: 205 to 207 °C
IC50 [1]: 15.8 nM
Ki [2]: 62.8 nM

CC[C@H]1COC(=O)N1c1nc(-c2ccc(C#N)cc2)cs1 [Example 8, 4-{2-[(4S)-4-Ethyl-2-oxo-1,3-oxazolidin-3-yl]-1,3-thiazol-4-yl}benzonitrile]
melting point: 173 to 175 °C
IC50 [1]: 14.6 nM
Ki [2]: 52.6 nM

CCC[C@H]1COC(=O)N1c1nc(-c2ccc(C#N)cc2)cs1 [Example 23, 4-{2-[(4S)-2-oxo-4-propyl-1,3-oxazolidin-3-yl]-1,3-thiazol-4-yl}benzonitrile]
melting point: 132 to 135 °C
IC50 [1]: 28.1 nM
Ki [2]: 41.2 nM

O=C1OC[C@@H](CF)N1c1nc(-c2ccc(Br)cc2)cs1 [Example 73, (4S)-3-[4-(4-Bromophenyl)-1,3-thiazol-2-yl]-4-(fluoromethyl)-1,3-oxazolidin-2-one]
melting point: 148 to 150 °C
IC50 [1]: 21.4 nM
Ki [2]: 31.5 nM

CC[C@@H]1COC(=O)N1c1nc(-c2ccc(C#N)cc2)cs1 [Example 10, 4-{2-[(4R)-4-Ethyl-2-oxo-1,3-oxazolidin-3-yl]-1,3-thiazol-4-yl}benzonitrile]
melting point: 153 to 157 °C
IC50 [1]: 12.8 nM
Ki [2]: 23.3 nM

CC1CN(c2nc(-c3ccc(C#N)cc3)cs2)C(=O)O1 (stereo not drawn) [Example 41, 4-[2-(5-Methyl-2-oxo-1,3-oxazolidin-3-yl)-1,3-thiazol-4-yl]benzonitrile]
melting point: 214 to 216 °C
IC50 [1]: 48.3 nM
Ki [2]: 284 nM

N#Cc1ccc(-c2csc(N3C(=O)OC[C@H]3CF)n2)cc1 [Example 74, 4-{2-[(4S)-4-(Fluoromethyl)-2-oxo-1,3-oxazolidin-3-yl]-1,3-thiazol-4-yl}benzonitrile]
melting point: 195 to 196 °C
IC50 [1]: 19.8 nM
Ki [2]: 45.1 nM
